Measured values from ChEMBL document CHEMBL1697692, “Developing structure-activity relationships for the prediction of hepatotoxicity” (Chem Res Toxicol, 2010).

These compounds were tested on Hepatotoxicity (assay: Literature-mined public compounds from Greene et al multi-species hepatotoxicity modelling dataset).

| Structure (SMILES) | Hepatotoxicity |
| --- | --- |
| CN(C)[C@@H]1C(O)=C(C(N)=O)C(=O)[C@@]2(O)C(O)=C3C(=O)c4c(O)ccc(Cl)c4[C@@H](O)[C@H]3C[C@@H]12.Cl [DEMECLOCYCLINE HYDROCHLORIDE] | HH: Evidence of human hepatotoxicity |
| CNCCCN1c2ccccc2CCc2ccccc21 [DESIPRAMINE] | WE: Weak evidence (<10 case reports) of human hepatotoxicity |
| C[C@@H]1C[C@H]2[C@@H]3CCC4=CC(=O)C=C[C@]4(C)[C@@]3(F)[C@@H](O)C[C@]2(C)[C@@]1(O)C(=O)CO [DEXAMETHASONE] | NE: No evidence of hepatotoxicity in any species |
| C[C@H](N)Cc1ccccc1.C[C@H](N)Cc1ccccc1.O=S(=O)(O)O [DEXTROAMPHETAMINE SULFATE] | HH: Evidence of human hepatotoxicity |
| Br.COc1ccc2c(c1)[C@]13CCCC[C@@H]1[C@H](C2)N(C)CC3.O [DEXTROMETHORPHAN HYDROBROMIDE] | NE: No evidence of hepatotoxicity in any species |
| Cc1onc(-c2c(Cl)cccc2Cl)c1C(=O)N[C@@H]1C(=O)N2[C@@H]1SC(C)(C)[C@@H]2C(=O)[O-].O.[Na+] [DICLOXACILLIN SODIUM] | HH: Evidence of human hepatotoxicity |
| O=c1[nH]cnc2c1ncn2[C@H]1CC[C@@H](CO)O1 [DIDANOSINE] | HH: Evidence of human hepatotoxicity |
| CCN(CC)C(=O)N1CCN(C)CC1 [DIETHYLCARBAMAZINE] | HH: Evidence of human hepatotoxicity |
| O=C(O)c1cc(-c2ccc(F)cc2F)ccc1O [DIFLUNISAL] | HH: Evidence of human hepatotoxicity |
| C[C@H]1O[C@@H](O[C@H]2[C@@H](O)C[C@H](O[C@H]3[C@@H](O)C[C@H](O[C@H]4CC[C@@]5(C)[C@H](CC[C@@H]6[C@@H]5C[C@@H](O)[C@]5(C)[C@@H](C7=CC(=O)OC7)CC[C@]65O)C4)O[C@@H]3C)O[C@@H]2C)C[C@H](O)[C@@H]1O [DIGOXIN] | NE: No evidence of hepatotoxicity in any species |
| C[C@H](CCc1ccccc1)NC[C@H](O)c1ccc(O)c(C(N)=O)c1 [DILEVALOL] | HH: Evidence of human hepatotoxicity |
| OCC(S)CS (configuration not stated) [DIMERCAPROL] | HH: Evidence of human hepatotoxicity |
| O=C1CCC(=O)N1c1cc(Cl)cc(Cl)c1 [DIMETHACHLON] | AH: Evidence for animal hepatotoxicity but not tested in humans |
| CN(C)C=O [DIMETHYLFORMAMIDE] | AH: Evidence for animal hepatotoxicity but not tested in humans |
| CCOC(=O)C1(c2ccccc2)CCN(CCC(C#N)(c2ccccc2)c2ccccc2)CC1.Cl [DIPHENOXYLATE HYDROCHLORIDE] | NE: No evidence of hepatotoxicity in any species |
| CC(C)N(CCC(C(N)=O)(c1ccccc1)c1ccccn1)C(C)C.O=P(O)(O)O (configuration not stated) [DISOPYRAMIDE PHOSPHATE] | HH: Evidence of human hepatotoxicity |
| CC(CCc1ccc(O)cc1)NCCc1ccc(O)c(O)c1.Cl (configuration not stated) [DOBUTAMINE HYDROCHLORIDE] | NE: No evidence of hepatotoxicity in any species |
| COc1cc2c(cc1OC)C(=O)C(CC1CCN(Cc3ccccc3)CC1)C2 (configuration not stated) [DONEPEZIL] | WE: Weak evidence (<10 case reports) of human hepatotoxicity |
| NCCc1ccc(O)c(O)c1 [DOPAMINE] | NE: No evidence of hepatotoxicity in any species |

| Structure (SMILES) | Hepatotoxicity |
| --- | --- |
| COc1cccc2c1C(=O)c1c(O)c3c(c(O)c1C2=O)C[C@@](O)(C(=O)CO)C[C@@H]3O[C@H]1C[C@H](N)[C@H](O)[C@H](C)O1.Cl [DOXORUBICIN HYDROCHLORIDE] | HH: Evidence of human hepatotoxicity |
| COc1cccc2c1C(=O)c1c(O)c3c(c(O)c1C2=O)C[C@@](O)(C(=O)CO)C[C@@H]3O[C@H]1C[C@H](N)[C@H](O)[C@H](C)O1 [DOXORUBICIN] | NE: No evidence of hepatotoxicity in any species |
| Clc1ccc(COC(Cn2ccnc2)c2ccc(Cl)cc2Cl)cc1.O=[N+]([O-])O (configuration not stated) [ECONAZOLE NITRATE] | NE: No evidence of hepatotoxicity in any species |
| CC[N+](C)(C)c1cccc(O)c1.[Cl-] [EDROPHONIUM CHLORIDE] | NE: No evidence of hepatotoxicity in any species |
| CCN(CC)CCOc1ccc(/C(=C(/Cl)c2ccccc2)c2ccccc2)cc1.O=C(O)CC(O)(CC(=O)O)C(=O)O [ENCLOMIPHENE CITRATE] | HH: Evidence of human hepatotoxicity |
| CCN(CC)C(=O)/C(C#N)=C/c1cc(O)c(O)c([N+](=O)[O-])c1 [ENTACAPONE] | WE: Weak evidence (<10 case reports) of human hepatotoxicity |
| COc1cccc2c1C(=O)c1c(O)c3c(c(O)c1C2=O)C[C@@](O)(C(=O)CO)C[C@@H]3O[C@H]1C[C@H](N)[C@@H](O)[C@H](C)O1 [EPIRUBICIN] | NE: No evidence of hepatotoxicity in any species |
| CCCCc1ncc(/C=C(\Cc2cccs2)C(=O)O)n1Cc1ccc(C(=O)O)cc1 [EPROSARTAN] | WE: Weak evidence (<10 case reports) of human hepatotoxicity |
| C=C1CC[C@H](O)C/C1=C/C=C1\CCC[C@]2(C)[C@@H]([C@H](C)/C=C/[C@H](C)C(C)C)CC[C@@H]12 [ERGOCALCIFEROL] | NE: No evidence of hepatotoxicity in any species |
| C[C@@H](CO)NC(=O)[C@@H]1C=C2c3cccc4[nH]cc(c34)C[C@H]2N(C)C1.O=C(O)/C=C\C(=O)O [ERGONOVINE MALEATE] | NE: No evidence of hepatotoxicity in any species |
| CN1C[C@H](C(=O)N[C@]2(C)O[C@@]3(O)[C@@H]4CCCN4C(=O)[C@H](Cc4ccccc4)N3C2=O)C=C2c3cccc4[nH]cc(c34)C[C@H]21.CN1C[C@H](C(=O)N[C@]2(C)O[C@@]3(O)[C@@H]4CCCN4C(=O)[C@H](Cc4ccccc4)N3C2=O)C=C2c3cccc4[nH]cc(c34)C[C@H]21.O=C(O)C(O)C(O)C(=O)O [ERGOTAMINE TARTRATE] | NE: No evidence of hepatotoxicity in any species |
| CCC(=O)O[C@H]1[C@H](O[C@@H]2[C@@H](C)[C@H](O[C@H]3C[C@@](C)(OC)[C@@H](O)[C@H](C)O3)[C@@H](C)C(=O)O[C@H](CC)[C@@](C)(O)[C@H](O)[C@@H](C)C(=O)[C@H](C)C[C@@]2(C)O)O[C@H](C)C[C@@H]1N(C)C.CCCCCCCCCCCCOS(=O)(=O)O [ERYTHROMYCIN ESTOLATE] | HH: Evidence of human hepatotoxicity |
| CC[C@H]1OC(=O)[C@H](C)[C@@H](O[C@H]2C[C@@](C)(OC)[C@@H](O)[C@H](C)O2)[C@H](C)[C@@H](O[C@@H]2O[C@H](C)C[C@H](N(C)C)[C@H]2O)[C@](C)(O)C[C@@H](C)C(=O)[C@H](C)[C@@H](O)[C@]1(C)O [ERYTHROMYCIN] | WE: Weak evidence (<10 case reports) of human hepatotoxicity |
| C[C@]12CC[C@@H]3c4ccc(O)cc4CC[C@H]3[C@@H]1CC[C@@H]2O[C@@H]1O[C@H](C(=O)O)[C@@H](O)[C@H](O)[C@H]1O [ESTRADIOL 17B GLUCURONIDE] | HH: Evidence of human hepatotoxicity |
| C[C@]12CC[C@@H]3c4ccc(O)cc4CC[C@H]3[C@@H]1CC[C@@H]2O [ESTRADIOL] | WE: Weak evidence (<10 case reports) of human hepatotoxicity |
| C[C@]12CC[C@@H]3c4ccc(O)cc4CC[C@H]3[C@@H]1CCC2=O [ESTRONE] | HH: Evidence of human hepatotoxicity |
| CS(=O)(=O)OCCOS(C)(=O)=O [ETHANE DIMETHANE SULFONATE] | AH: Evidence for animal hepatotoxicity but not tested in humans |
| C#C[C@]1(O)CC[C@H]2[C@@H]3CCc4cc(O)ccc4[C@H]3CC[C@@]21C [ETHINYL ESTRADIOL] | HH: Evidence of human hepatotoxicity |
